In patent publication US6432438B1, “Biodegradable vehicle and filler” (priority 1997, dated 2002):
Counter-ions that a name gives are not always drawn.

Columns and labels:
[1] = Solubility in water / dissolution buffer; format: physicochemical; conditions: compared to hydrated naltrexone base; isotonic phosphate buffer
[2] = Drug release from drug-loaded biodegradable vehicles at 37° C. in isotonic phosphate buffer; format: physicochemical; conditions: compared to hydrated naltrexone base, 25% polymer (i.v. 0.64) with pure PEG 400 or 50/50% PEG 400/TEC, drug 20% w/w
[3] = hydrochloride salt compared to the base; cited from earlier work
[4] = Drug release from drug-loaded biodegradable vehicles at 37° C. in isotonic phosphate buffer; format: physicochemical; conditions: for drug release: drug 20% w/w
Description: A polymer (25% w/w of 50/50 lactide-co-glycolide copolymer, inherent viscosity of 0.59) was dissolved in a minimum quantity of acetone. […] The resulting solutions were stirred to yield uniform mixtures. Acetone was evaporated from the mixtures by heating at 60-75° C. with constant stirring. The biodegradable vehicles were kept in a vacuum oven at 60-75° C. overnight to ensure complete removal of acetone. […] Oxytetracycline base (20% w/w) was added to each biodegradable vehicle and mixed thoroughly to ensure uniform distribution of the drug in the formulations. Drug release from the drug-loaded biodegradable vehicles was performed at 37° C. in isotonic phosphate buffer containing sodium sulfite as an antioxidant. […]
A polymer (25% w/w of 50/50 lactide-co-glycolide copolymer, inherent viscosity of 0.59) was dissolved in a minimum quantity of acetone. Either pure polyethylene glycol 400, triethyl citrate (TEC) or acetyl triethyl citrate (ATEC) was added to the polymer solution. The resulting solutions were stirred to yield uniform mixtures. Acetone was evaporated from the mixtures by heating at 60-75° C. with constant stirring. The biodegradable vehicles were kept in a vacuum oven at 60-75° C. overnight to ensure complete removal of acetone. […] Oxytetracycline base (20% w/w) was added to each biodegradable vehicle and mixed thoroughly to ensure uniform distribution of the drug in the formulations. Drug release from the drug-loaded biodegradable vehicles was performed at 37° C. in isotonic phosphate buffer containing sodium sulfite as an antioxidant. Drug release was fastest from formulations prepared with PEG 400, and slowest from those prepared with ATEC.
The resulting solutions were stirred to yield uniform mixtures. Acetone was evaporated from the mixtures by heating at 60-75° C. with constant stirring. The biodegradable vehicles were kept in a vacuum oven at 60-75° C. overnight to ensure complete removal of acetone. […] Oxytetracycline base (20% w/w) was added to each biodegradable vehicle and mixed thoroughly to ensure uniform distribution of the drug in the vehicles. Drug release from the drug-loaded biodegradable vehicles was performed at 37° C. in isotonic phosphate buffer containing sodium sulfite as an antioxidant. Faster drug release was observed from formulations prepared with a 16.67% polymer and 83.3% of plasticizer blends of varying compositions (polymer to plasticizer ratio of 1:5) compared to those prepared from formulations with polymer to plasticizer ratios of […] (i.e. […]). This is because increasing the polymer concentration in the formulations from 16.67% to 33.3% increased the viscosity of the formulations and decreased the drug diffusion from the formulations. […]
The solutions were stirred to yield a uniform mixture. Acetone was evaporated from the mixtures by heating at 60-75° C. with constant stirring. The biodegradable vehicles were kept in a vacuum oven at 60-75° C. overnight to ensure complete removal of acetone. […] Either hydrated naltrexone base (20% w/w) or naltrexone hydrochloride (20% w/w) was added to the biodegradable vehicles and mixed thoroughly to ensure uniform distribution of the drugs in the formulations. Drug release from the drug-loaded biodegradable vehicles was performed at 37° C. in isotonic phosphate buffer. […] This is because the solubility of the naltrexone hydrochloride in the dissolution buffer is much greater than that of the hydrated naltrexone base.
A similar drug release study was performed with formulations containing either 20% oxytetracycline hydrochloride or 20% oxytetracycline base. […] The solutions were stirred to yield a uniform mixture. Acetone was evaporated from the mixtures by heating at 60-75° C. with constant stirring. The biodegradable vehicles were kept in a vacuum oven at 60-75° C. overnight to ensure complete removal of acetone. […]

Compound: O=C1CC[C@@]2(O)[C@H]3Cc4ccc(O)c5c4[C@@]2(CCN3CC2CC2)[C@H]1O5 [naltrexone hydrochloride]
- solubility in the dissolution buffer [1]: much greater
- drug release [2]: considerably faster

Compound: CN(C)[C@@H]1C(O)=C(C(N)=O)C(=O)[C@@]2(O)C(O)=C3C(=O)c4c(O)cccc4[C@@](C)(O)[C@H]3[C@H](O)[C@@H]12 [oxytetracycline hydrochloride]
- aqueous solubility [3]: greater

Compound: CN(C)[C@@H]1C(=O)C(C(N)=O)=C(O)[C@@]2(O)C(=O)C3=C(O)c4c(O)cccc4[C@@](C)(O)[C@H]3[C@H](O)[C@@H]12 [oxytetracycline base]
- drug release ([4]; blend of 75% PEG 400 and 25% TEC compared to 50/50% PEG 400/TEC at similar polymer to plasticizer ratios): considerably faster
- drug release ([4]; formulations prepared from TEC, 25% w/w polymer, compared among PEG 400, TEC, ATEC): Intermediate
- drug release ([4]; formulations prepared with ATEC, 25% w/w polymer, compared among PEG 400, TEC, ATEC): slowest
- drug release ([4]; formulations prepared with PEG 400, 25% w/w polymer, compared among PEG 400, TEC, ATEC): fastest
- drug release ([4]; on decreasing inherent viscosity of polymer from 0.76 to 0.15, PEG 400): dramatically increased
- drug release ([4]; on decreasing polymer in the formulations from 25% to 10% (PEG 400 75% to 90%), 37° C.): dramatically increased
- drug release ([4]; on increasing PEG 400 from 0% PEG 400/100% TEC to 100% PEG 400/0% TEC, 25% w/w polymer, 37° C.): faster
- cumulative amount of drug released ([4]; on increasing drug in the formulations from 10 to 30% w/w, 25% w/w 50/50 PLGA (i.v. 0.59) + PEG 400, 37° C., isotonic phosphate buffer with sodium sulfite): increased
- drug release ([4]; polymer to plasticizer ratio 1:5 (16.67% polymer) compared to 1:3, PEG 400/TEC blends): Faster
